17 compounds from US20210330611A1, “THERAPY FOR NEUROLOGICAL DISEASES/DISORDERS” (priority 2020, published 2021) can be followed below.

For series [1], the system named is fibrin-induced microglia activation. The series is described as follows: Image-based assay of fibrin-induced microglia activation (HTS and dose response). Format: cell-based, rat. To be noted: for inhibition at 10 µM: Rattus norvegicus, Microglia, fibrin-stimulated, cell size >800 μm^2 as marker of activation, read-out: Fibrin % inhibition.
The subject of series [2] is LPS-induced microglia activation. The series is described as follows: Image-based assay of LPS-induced microglia activation (HTS and dose response). The series is classed as cell-based, rat. To be noted: for inhibition at 10 µM: Rattus norvegicus, Microglia, LPS-stimulated, cell size >800 μm^2 as marker of activation, read-out: LPS % inhibition.
Series [3] deals with fibrin- and LPS-induced microglia activation. The series is described as follows: cells. The series is classed as cell-based, rat. To be noted: for Hit: HTS hit classification.
The subject of series [4] is primary rat microglia. The series can be described thus: Cell toxicity (dead cells, size <150 μm2) in LPS assay. To be noted: for IC50: read-out: Cell Toxicity IC50 (uM) [LPS assay].
Series [5] deals with primary rat microglia. The series is described as follows: Cell toxicity (dead cells, size <150 μm2) in coated fibrin (cFib) assay.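 As to Fibrin % cell toxicity: share of dead cells sized under 150 µm2 at 10 µM in fibrin-stimulated microglia HTS.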 The note with it: for IC50: read-out: Cell Toxicity IC50 (uM) [cFib assay].
The mark [6] stands for this setting: HTS of 1907 compounds, quadrant by fibrin and LPS inhibition.
The mark [7] stands for this setting: primary microglia HTS, 10 μM, LPS assay, cell size <150 μm^2 as marker of toxicity.
Setting [8] is: primary microglia HTS, 10 μM, fibrin assay, cell size <150 μm^2 as marker of toxicity.
The mark [9] stands for this setting: primary HTS, 10 μM, fibrin-stimulated primary microglia.
The mark [10] stands for this setting: primary HTS, 10 μM, LPS-stimulated primary microglia.
Where [11] appears, read: primary HTS, 10 μM, LPS assay, dead cells size <150 μm2.
The mark [12] stands for this setting: primary HTS, 10 μM, fibrin assay, dead cells size <150 μm2.
Setting [13] is: Table 1, dose response 0.001-20 μM, triplicates, primary rat microglia, 48 h, read-out: Fibrin IC50.
The mark [14] stands for this setting: dose response, fibrin-induced microglia activation, read-out: Fibrin IC50.
Setting [15] is: fibrin-induced microglia activation, dose response, read-out: Fibrin IC50 (uM) (Suppl. Table 7).
The mark [16] stands for this setting: primary microglia HTS, fibrin stimulation, increased cell size (>800 μm^2) as marker of activation.
The mark [17] stands for this setting: LPS-induced microglia activation, dose response, read-out: LPS IC50 (uM) (Suppl. Table 7).
Setting [18] is: Table 1, dose response 0.001-20 μM, triplicates, primary rat microglia, 48 h, read-out: LPS IC50.
The mark [19] stands for this setting: dose response, LPS-induced microglia activation, read-out: LPS IC50.
Setting [20] is: primary microglia HTS, LPS stimulation, increased cell size (>800 μm^2) as marker of activation.
[21] abbreviates: hit classification in microglia HTS.
Where [22] appears, read: quadrant by fibrin and LPS inhibition in HTS of 1907 compounds.
Where [23] appears, read: primary microglia HTS, LPS stimulation, decreased size (<150 μm^2) as marker of toxicity.
Setting [24] is: primary microglia HTS, fibrin stimulation, decreased size (<150 μm^2) as marker of toxicity.

Like-named read-outs stand apart in the source and are kept apart here.

What is called inhibition is the change of the read-out against control, counted positive when it falls. Turning to `CCN(C(C)=O)c1cccc(-c2ccnc3c(C#N)cnn23)c1` [Zaleplon], the inhibition at 10 µM in series [1] (primary microglia HTS, 10 μM) was 16%; in series [2] (primary microglia HTS, 10 μM) it was 13%. Further, in series [3] (setting [6]), the “Quadrant (FIG. 5b)” value is recorded as “Q4”. Further, the “LPS % cell toxicity” value with primary rat microglia [4] (setting [7]) came to 0%. Moreover, in the series on primary rat microglia [5] (setting [8]), the “Fibrin % cell toxicity” value was found to be 1%.
For `CCCOc1ccccc1-c1nc2nn[nH]c2c(=O)[nH]1` [Zaprinast], in that order: -34%, 13%, “Q4”, 0% and 1%.
On to `CC(c1cc2ccccc2s1)N(O)C(N)=O` (stereo not drawn) [Zileuton], for which the inhibition at 10 µM in series [1] (primary microglia HTS, 10 μM) is -12%; in series [2] (primary microglia HTS, 10 μM) it was 21%. Moreover, in series [3] (setting [6]), the “Quadrant (FIG. 5b)” value was “Q4”. Also, the “LPS % cell toxicity” value in the series on primary rat microglia [4] (setting [7]) is reported as 0%. For the same compound, the “Fibrin % cell toxicity” value in the series with primary rat microglia [5] (setting [8]) is on record as 0%.
As for `CN(C)CCc1c[nH]c2ccc(C[C@H]3COC(=O)N3)cc12` [Zolmitriptan], the inhibition at 10 µM is 9% in series [1] (primary microglia HTS, 10 μM) and 18% in series [2] (primary microglia HTS, 10 μM). For the same compound, the “Quadrant (FIG. 5b)” value in series [3] (setting [6]) is “Q4”. For the same compound, in the series on primary rat microglia [4] (setting [7]), the “LPS % cell toxicity” value was determined as 0%. In addition, the “Fibrin % cell toxicity” value with primary rat microglia [5] (setting [8]) came out at 1%.
For the compound `Cc1cc(CC(=O)O)n(C)c1C(=O)c1ccc(Cl)cc1` [Zomepirac], the inhibition at 10 µM is -4% in series [1] (primary microglia HTS, 10 μM) and 10% in series [2] (primary microglia HTS, 10 μM). Also, the “Quadrant (FIG. 5b)” value in series [3] (setting [6]) is “Q4”. The “LPS % cell toxicity” value in the series with primary rat microglia [4] (setting [7]) worked out at 0%. Further, the “Fibrin % cell toxicity” value in the series with primary rat microglia [5] (setting [8]) came out at 1%.
For `NS(=O)(=O)Cc1noc2ccccc12` [Zonisamide], in that order: -37%, -12%, “Q4”, 0% and 0%.
Turning to `CN1CCN(C(=O)OC2c3nccnc3C(=O)N2c2ccc(Cl)cn2)CC1` (stereo not drawn) [Zopiclone], the inhibition at 10 µM in series [1] (primary microglia HTS, 10 μM) is 11%; in series [2] (primary microglia HTS, 10 μM), 5%. Also, the “Quadrant (FIG. 5b)” value in series [3] (setting [6]) was “Q4”. For the same compound, the “LPS % cell toxicity” value in the series on primary rat microglia [4] (setting [7]) is 0%. In addition, in the series on primary rat microglia [5] (setting [8]), the “Fibrin % cell toxicity” value is 1%.
In the case of Candicidin, the Fibrin % inhibition in series [1] (setting [9]) is recorded as −41%. Further, in series [2] (setting [10]), the LPS % inhibition is recorded as 31%. Further, the “Quadrant (FIG. 5b)” value in series [3] (primary HTS, 10 μM) is “Q4”. Further, the “LPS % cell toxicity” value in the series with primary rat microglia [4] (setting [11]) turned out to be 0%. Further, the “Fibrin % cell toxicity” value with primary rat microglia [5] (setting [12]) is 1%.
Turning to Capreomycin Sulfate, in series [1] (setting [9]), the Fibrin % inhibition is −32%. In addition, the LPS % inhibition in series [2] (setting [10]) came to 3%. The “Quadrant (FIG. 5b)” value in series [3] (primary HTS, 10 μM) is on record as “Q4”. Also, the “LPS % cell toxicity” value with primary rat microglia [4] (setting [11]) is given as 0%. The “Fibrin % cell toxicity” value in the series with primary rat microglia [5] (setting [12]) is listed as 1%.
On to Chiniofon, for which the Fibrin % inhibition in series [1] (setting [9]) is −52%. The LPS % inhibition in series [2] (setting [10]) was −1%. Further, the “Quadrant (FIG. 5b)” value in series [3] (primary HTS, 10 μM) is listed as “Q4”. Further, the “LPS % cell toxicity” value in the series on primary rat microglia [4] (setting [11]) is 1%. For the same compound, the “Fibrin % cell toxicity” value with primary rat microglia [5] (setting [12]) was determined as 1%.
For the compound Chlorophyllide Cu Complex Na Salt, the Fibrin % inhibition in series [1] (setting [9]) is reported as −36%. Further, the LPS % inhibition in series [2] (setting [10]) amounted to 9%. In addition, the “Quadrant (FIG. 5b)” value in series [3] (primary HTS, 10 μM) is on record as “Q4”. Further, in the series on primary rat microglia [4] (setting [11]), the “LPS % cell toxicity” value was 0%. For the same compound, in the series on primary rat microglia [5] (setting [12]), the “Fibrin % cell toxicity” value came to 0%.
In general, IC50 refers to the concentration that inhibits the measured activity by half. For the compound “Colistimethate sodium [reference compound]”, the IC50 in series [1] (setting [13]), in series [1] (setting [14]), in series [1] (setting [15]), in series [2] (setting [17]), in series [2] (setting [18]) and in series [2] (setting [19]) was > 20 µM each time. Besides, the IC50 in the series with primary rat microglia [4] (LPS assay) and in the series on primary rat microglia [5] (cFib assay) was > 20 µM in each case. Further, the Fibrin % inhibition in series [1] (setting [16]) was 72%. Moreover, the LPS % inhibition in series [2] (setting [20]) turned out to be 112%. Besides, in series [3], the Hit entry is recorded as “HIT (Hits were defined as molecules that exhibited greater than 50% inhibition of either fibrin or LPS activation)”. Further, the “Quadrant (FIG. 5b)” value was “Q2” in series [3] (setting [6]); “Q2” in series [3] (Table 1, screen at 10 μM); “Q2” in series [3] (setting [22]). The “Cherry-picked Hit (Suppl. Table 7)” value in series [3] (setting [21]) is reported as “HIT (Hits were defined as molecules that exhibited greater than 50% inhibition of either fibrin or LPS activation)”. Also, the “LPS % cell toxicity” value in the series with primary rat microglia [4] (setting [23]) was determined as 4%. Besides, the “Fibrin % cell toxicity” value in the series with primary rat microglia [5] (setting [24]) was 1%.
Turning to Colistin Sulfate, the Fibrin % inhibition in series [1] (setting [16]) turned out to be 19%. Also, the LPS % inhibition in series [2] (setting [20]) is on record as 58%. The “Quadrant (FIG. 5b)” value in series [3] (setting [22]) is listed as “Q1”. Moreover, the “LPS % cell toxicity” value with primary rat microglia [4] (setting [23]) is 1%. Further, the “Fibrin % cell toxicity” value in the series on primary rat microglia [5] (setting [24]) is 1%.
With Gentamicin sulfate [reference compound], the “Fibrin Selectivity” value in series [1] came to 5. Also, in series [1], the “Fibrin Selectivity (LOG10)” value came out at 0.71. The IC50 in series [1] (setting [13]) is 4 µM; in series [1] (Table 3, read-out: Fibrin IC50 (uM) (Suppl. Table 7)), 4 µM; in series [1] (setting [14]) it was 4 µM; in series [1] (setting [15]), 4 µM; in series [2] (setting [17]), > 20 µM; in series [2] (setting [18]), > 20 µM. Besides, the IC50 is > 20 µM in series [2] (Table 3, read-out: LPS IC50 (uM) (Suppl. Table 7)); > 20 µM in series [2] (setting [19]); > 20 µM in the series with primary rat microglia [4] (LPS assay); > 20 µM in the series with primary rat microglia [4] (Table 3); > 20 µM in the series with primary rat microglia [5] (Table 3); > 20 µM in the series with primary rat microglia [5] (cFib assay). Also, in series [1] (setting [16]), the Fibrin % inhibition stood at 105%. For the same compound, in series [2] (setting [20]), the LPS % inhibition is on record as 101%. In addition, the Hit entry in series [3] is “HIT (Hits were defined as molecules that exhibited greater than 50% inhibition of either fibrin or LPS activation)”. For the same compound, the “Quadrant (FIG. 5b)” value in series [3] (setting [6]) is “Q2”; in series [3] (Table 1, screen at 10 μM), “Q2”; in series [3] (Table 3, screen at 10 μM), “Q2”; in series [3] (setting [22]), “Q2”. For the same compound, the “Cherry-picked Hit (Suppl. Table 7)” value in series [3] (Table 3) and in series [3] (setting [21]) was “HIT (Hits were defined as molecules that exhibited greater than 50% inhibition of either fibrin or LPS activation)” in each case. For the same compound, the “LPS % cell toxicity” value with primary rat microglia [4] (setting [23]) is recorded as 4%. For the same compound, the “Fibrin % cell toxicity” value in the series on primary rat microglia [5] (setting [24]) came to 1%.
With Gramicidin, in series [1] (setting [16]), the Fibrin % inhibition worked out at 114%. Moreover, in series [2] (setting [20]), the LPS % inhibition was 118%. Further, the “Quadrant (FIG. 5b)” value in series [3] (setting [22]) was “Q2”. In the series on primary rat microglia [4] (setting [23]), the “LPS % cell toxicity” value was 64%. For the same compound, the “Fibrin % cell toxicity” value with primary rat microglia [5] (setting [24]) worked out at 43%.
Consider Mepartricin, for which, in series [1] (setting [16]), the Fibrin % inhibition is recorded as 6%. Moreover, the LPS % inhibition in series [2] (setting [20]) is −1%. In series [3] (setting [22]), the “Quadrant (FIG. 5b)” value is listed as “Q4”. Besides, the “LPS % cell toxicity” value in the series with primary rat microglia [4] (setting [23]) was determined as 0%. In the series with primary rat microglia [5] (setting [24]), the “Fibrin % cell toxicity” value is given as 1%.
In the case of Merbromin, the Fibrin % inhibition in series [1] (setting [16]) is −6%. Besides, the LPS % inhibition in series [2] (setting [20]) came out at 36%. Also, the “Quadrant (FIG. 5b)” value in series [3] (setting [22]) is “Q4”. Moreover, the “LPS % cell toxicity” value in the series with primary rat microglia [4] (setting [23]) was found to be 0%. Moreover, the “Fibrin % cell toxicity” value in the series with primary rat microglia [5] (setting [24]) is 0%.
